# Data as given in US20160022675A1, “PROCESSES FOR PREPARING TETRAHYDROISOQUINOLINES” (BRISTOL-MYERS SQUIBB COMPANY, priority 2013, published 2016).
# Where two headings read alike, the source gives them in different places.
# Columns and labels:
# [1] = biological target: T1, DAT (Mus musculus, UniProt Q61327); experiment: DAT occupancy in the brain, mouse; type: in vivo
# T1 construct: from tissue; host or cells: mouse brain
# Method: (§1) The effects of Compound 1-(4S) in the mouse tail suspension model of depression and target site occupancy were assessed to compare occupancies associated with the behavioral response. The mouse tail suspension model is known the art. […] The lowest effective dose of Compound 1-(4S), 0.3 mg/kg, PO, decreased immobility by 77% relative to vehicle-treated controls. […] Administration of Compound 1-(4S) led to dose-dependent occupancy of SERT, NET, and DAT binding sites in the brain. At the lowest behaviorally-effective dose (0.3 mg/kg), occupancies were 86±1% of SERT, 76±3% of NET, and 28±3% of DAT. At 1 mg/kg, occupancies were 89±1%, 82±1% and 54±3% at SERT, NET, and DAT, respectively. Pharmacokinetics and pharmacodynamics (PD) in mouse, rat, and dog focused primarily on DAT occupancy since SERT and NET occupancies were saturated by drug for most, if not all, of the times studied. DAT occupancy increased as a function of increasing plasma exposure. The DAT occupancy to total plasma level could be fitted using a single binding site model and plasma level ED50 (the dose producing 50% effect) values could be calculated.
# (§2) To better understand the margin between doses of Compound 1-(4S) that are effective in the mouse tail suspension models and those that lead to monoamine-related side effects, locomotor activity was examined to assess psychostimulant properties and stereotypy was examined to assess more severe DA-related side effects. Increased body temperature, another effect that has been attributed to DA pharmacology, was also studied. In the mouse, Compound 1-(4S) increased locomotor activity and stereotypy scores at doses of 3.0 mg/kg and 10 mg/kg, respectively. Thus, the margin between the Compound 1-(4S) effective dose in the mouse tail suspension and increased locomotor activity was 10-fold and the margin versus activity in stereotypy was 30-fold. The thermogenic effect of Compound 1-(4S) was studied in mice and rats by measuring changes in rectal temperature following administration of the compound. […] The onset of the thermogenesis was earlier as the dose was increased. The levels of SERT and NET occupancy were over 80% and appeared saturated across the doses tested. The DAT occupancy was dose-dependent, with 55±5.7% at 1.0 mg/kg, 74±6% at 3.0 mg/kg, and 83±0.8% at 10 mg/kg. […] The onset of the temperature increase was earlier at the highest dose of 10 mg/kg. […] The DAT occupancy was 37±8.3%, 55±5.2%, and 71±1.7% at 1.0, 3.0, and 10 mg/kg, respectively. Consistent with data obtained with mice, the thermogenic effect of Compound 1-(4S) is dose dependently related to DAT occupancy and at least 50% DAT occupancy is needed for this effect.
# [2] = biological target: T2, DAT (Rattus norvegicus, UniProt P23977); experiment: DAT occupancy, rat; type: in vivo
# T2 construct: from tissue; host or cells: rat, in vivo dosing
# T2 sequence (P23977 whole entry): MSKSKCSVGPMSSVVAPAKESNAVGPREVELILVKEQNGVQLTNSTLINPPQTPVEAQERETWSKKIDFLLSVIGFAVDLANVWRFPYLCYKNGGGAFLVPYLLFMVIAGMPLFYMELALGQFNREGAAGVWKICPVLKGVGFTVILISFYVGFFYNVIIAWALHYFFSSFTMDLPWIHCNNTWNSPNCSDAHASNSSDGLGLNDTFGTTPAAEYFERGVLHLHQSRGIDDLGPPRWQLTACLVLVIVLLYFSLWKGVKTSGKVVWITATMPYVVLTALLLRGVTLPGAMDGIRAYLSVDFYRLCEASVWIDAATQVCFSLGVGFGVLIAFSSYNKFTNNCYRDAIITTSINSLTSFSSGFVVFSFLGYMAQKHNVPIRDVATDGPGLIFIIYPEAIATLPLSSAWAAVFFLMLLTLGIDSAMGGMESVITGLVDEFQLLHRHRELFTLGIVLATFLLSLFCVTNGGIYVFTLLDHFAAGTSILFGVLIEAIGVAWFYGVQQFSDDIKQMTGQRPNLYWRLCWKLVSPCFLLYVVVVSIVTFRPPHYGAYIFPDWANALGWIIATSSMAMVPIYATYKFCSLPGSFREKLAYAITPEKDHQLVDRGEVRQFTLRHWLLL
# Method: as §1, §2
# [3] = Solution pH; type: physicochemical; conditions: at about 1 μg/mL concentration in water
# [4] = system: rectal temperature; experiment: Thermogenic effect (rectal temperature), rat; type: in vivo
# Description: as §2
# [5] = biological target: DAT (Homo sapiens, UniProt Q01959); experiment: [3H]DA uptake into HEK293/hDAT cells; type: cell-based; design: expressed in transfected cells; host or cells: HEK293; conditions: read-out: Dopamine reuptake IC50 ([3H]DA uptake)
# Sequence of DAT (Homo sapiens, UniProt Q01959) (Q01959 whole entry): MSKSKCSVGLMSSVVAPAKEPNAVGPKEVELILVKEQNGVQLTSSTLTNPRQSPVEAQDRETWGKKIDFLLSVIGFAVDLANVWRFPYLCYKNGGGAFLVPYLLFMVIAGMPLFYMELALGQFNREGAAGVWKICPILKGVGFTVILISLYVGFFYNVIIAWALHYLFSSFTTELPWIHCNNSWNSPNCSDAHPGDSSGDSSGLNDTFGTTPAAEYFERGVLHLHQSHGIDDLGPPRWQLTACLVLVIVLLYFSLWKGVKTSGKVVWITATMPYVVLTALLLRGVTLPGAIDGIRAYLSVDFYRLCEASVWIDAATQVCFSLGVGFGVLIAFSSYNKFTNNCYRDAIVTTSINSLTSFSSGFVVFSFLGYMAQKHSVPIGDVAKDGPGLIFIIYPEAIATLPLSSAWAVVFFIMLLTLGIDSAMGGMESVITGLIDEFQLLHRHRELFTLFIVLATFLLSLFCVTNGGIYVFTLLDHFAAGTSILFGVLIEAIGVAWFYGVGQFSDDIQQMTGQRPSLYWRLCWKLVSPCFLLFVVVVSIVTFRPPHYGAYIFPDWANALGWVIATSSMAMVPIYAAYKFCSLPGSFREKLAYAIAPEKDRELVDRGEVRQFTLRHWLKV
# Description: (§3) Cell-based assays were used to determine the ability of Compound 1-(4S) to inhibit reuptake of 3H-labeled DA ([3H]DA), NE ([3H]NE), and 5-HT ([3H]5-HT).
# [6] = biological target: T3, SERT (Mus musculus, UniProt Q60857); experiment: SERT occupancy in the brain, mouse; type: in vivo
# T3 construct: from tissue; host or cells: mouse brain
# T3 sequence (Q60857 whole entry): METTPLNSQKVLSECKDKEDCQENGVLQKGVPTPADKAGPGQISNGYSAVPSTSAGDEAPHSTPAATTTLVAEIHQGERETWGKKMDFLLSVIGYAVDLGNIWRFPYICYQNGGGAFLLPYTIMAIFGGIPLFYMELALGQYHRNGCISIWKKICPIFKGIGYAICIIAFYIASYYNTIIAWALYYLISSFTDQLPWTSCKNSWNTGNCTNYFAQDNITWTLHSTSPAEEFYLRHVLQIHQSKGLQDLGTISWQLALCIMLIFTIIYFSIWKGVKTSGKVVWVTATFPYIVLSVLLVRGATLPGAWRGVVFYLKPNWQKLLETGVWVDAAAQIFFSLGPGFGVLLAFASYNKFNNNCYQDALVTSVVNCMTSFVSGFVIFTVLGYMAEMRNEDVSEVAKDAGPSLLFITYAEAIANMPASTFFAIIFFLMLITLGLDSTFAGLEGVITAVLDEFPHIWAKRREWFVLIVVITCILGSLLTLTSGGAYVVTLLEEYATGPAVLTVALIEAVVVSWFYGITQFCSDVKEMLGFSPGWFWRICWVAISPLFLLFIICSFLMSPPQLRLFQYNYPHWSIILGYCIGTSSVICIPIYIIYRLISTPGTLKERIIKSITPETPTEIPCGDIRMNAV
# Method: as §1
# (§4) To better understand the margin between doses of Compound 1-(4S) that are effective in the mouse tail suspension models and those that lead to monoamine-related side effects, locomotor activity was examined to assess psychostimulant properties and stereotypy was examined to assess more severe DA-related side effects. Increased body temperature, another effect that has been attributed to DA pharmacology, was also studied. In the mouse, Compound 1-(4S) increased locomotor activity and stereotypy scores at doses of 3.0 mg/kg and 10 mg/kg, respectively. Thus, the margin between the Compound 1-(4S) effective dose in the mouse tail suspension and increased locomotor activity was 10-fold and the margin versus activity in stereotypy was 30-fold. The thermogenic effect of Compound 1-(4S) was studied in mice and rats by measuring changes in rectal temperature following administration of the compound. […] The onset of the thermogenesis was earlier as the dose was increased. […]
# [7] = biological target: SERT (Homo sapiens, UniProt P31645); experiment: [3H]5-HT uptake into HEK293/hSERT cells; type: cell-based; design: expressed in transfected cells; host or cells: HEK293; conditions: read-out: Serotonin reuptake IC50 ([3H]5-HT uptake)
# Sequence of SERT (Homo sapiens, UniProt P31645) (P31645 whole entry): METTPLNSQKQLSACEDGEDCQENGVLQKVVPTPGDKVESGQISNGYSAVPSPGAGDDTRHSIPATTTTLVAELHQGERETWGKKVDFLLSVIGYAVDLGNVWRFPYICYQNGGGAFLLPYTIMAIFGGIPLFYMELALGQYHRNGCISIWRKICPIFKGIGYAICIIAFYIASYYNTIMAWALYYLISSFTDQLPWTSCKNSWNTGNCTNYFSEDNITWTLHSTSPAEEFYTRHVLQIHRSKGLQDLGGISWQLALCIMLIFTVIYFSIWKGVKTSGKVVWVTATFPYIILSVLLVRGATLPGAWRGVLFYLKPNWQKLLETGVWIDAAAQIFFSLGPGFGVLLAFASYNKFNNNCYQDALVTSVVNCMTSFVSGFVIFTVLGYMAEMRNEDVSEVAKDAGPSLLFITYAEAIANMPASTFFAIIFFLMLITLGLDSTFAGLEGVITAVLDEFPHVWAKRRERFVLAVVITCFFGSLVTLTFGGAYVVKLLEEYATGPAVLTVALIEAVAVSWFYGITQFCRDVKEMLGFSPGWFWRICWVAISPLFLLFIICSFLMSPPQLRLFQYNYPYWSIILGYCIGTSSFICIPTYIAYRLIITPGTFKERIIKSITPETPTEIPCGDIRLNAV
# Description: as §3
# [8] = system: mouse tail suspension model of depression; experiment: Mouse tail suspension model of depression; type: in vivo; conditions: PO
# Method: as §1
# [9] = pH-Solubility profile (aqueous); type: physicochemical; conditions: aqueous solution, aqueous buffer; solution pH 6.5 and above
# [10] = system: rectal temperature; experiment: Thermogenic effect (rectal temperature), mouse; type: in vivo; conditions: 4 hours after doses of 1, 3, and 10 mg/kg
# Description: as §2, with “Consistent with data obtained with mice, the thermogenic effect of Compound 1-(4S) is dose dependently related to DAT occupancy and at least 50% DAT occupancy is needed for this effect.” left out
# [11] = system: cocaine-lever responding; conditions: rat, in vivo; for cocaine-lever responding: po
# Method: Compound 1-(4S) was evaluated in a cocaine discrimination assay in rats, a model used to address abuse potential. The cocaine discrimination assay is known the art Compound 1-(4S) was administered and the percentage of rats that responded by selecting the cocaine-associated lever was measured. […] Since the subjective effects of cocaine are evident 15 minutes after dosing, Compound 1-(4S) was tested at the earlier time point. […] In addition, the onset of this partial effect was slower than the onset of the subjective effects of cocaine in this model.
# [12] = Stability; type: physicochemical; conditions: with protection from light
# [13] = Distribution coefficient; type: physicochemical
# [14] = biological target: T4, NET (Mus musculus, UniProt O55192); experiment: NET occupancy in the brain, mouse; type: in vivo
# T4 construct: from tissue; host or cells: mouse brain
# T4 sequence (O55192 whole entry): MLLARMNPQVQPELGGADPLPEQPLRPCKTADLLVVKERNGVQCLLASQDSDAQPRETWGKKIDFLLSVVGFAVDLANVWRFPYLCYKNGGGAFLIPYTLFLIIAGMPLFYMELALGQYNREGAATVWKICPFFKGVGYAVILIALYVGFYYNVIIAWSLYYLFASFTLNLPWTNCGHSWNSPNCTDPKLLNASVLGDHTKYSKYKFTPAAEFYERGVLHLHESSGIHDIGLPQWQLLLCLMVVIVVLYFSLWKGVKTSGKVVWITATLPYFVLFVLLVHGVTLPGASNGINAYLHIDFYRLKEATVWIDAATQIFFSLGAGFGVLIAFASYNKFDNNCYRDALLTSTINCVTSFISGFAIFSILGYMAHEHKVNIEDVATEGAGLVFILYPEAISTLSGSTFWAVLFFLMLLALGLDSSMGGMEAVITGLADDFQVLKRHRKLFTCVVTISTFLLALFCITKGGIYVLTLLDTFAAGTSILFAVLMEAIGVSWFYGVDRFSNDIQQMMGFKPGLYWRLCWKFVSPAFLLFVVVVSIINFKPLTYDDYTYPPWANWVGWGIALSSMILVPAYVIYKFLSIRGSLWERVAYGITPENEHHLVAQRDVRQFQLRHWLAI
# Method: as §1, §4
# [15] = biological target: T5, SERT (Rattus norvegicus, UniProt P31652); experiment: SERT occupancy, rat; type: in vivo; conditions: thermogenesis study, all 3 doses (1.0, 3.0, 10 mg/kg)
# T5 construct: from tissue; host or cells: rat, in vivo dosing
# T5 sequence (P31652 whole entry): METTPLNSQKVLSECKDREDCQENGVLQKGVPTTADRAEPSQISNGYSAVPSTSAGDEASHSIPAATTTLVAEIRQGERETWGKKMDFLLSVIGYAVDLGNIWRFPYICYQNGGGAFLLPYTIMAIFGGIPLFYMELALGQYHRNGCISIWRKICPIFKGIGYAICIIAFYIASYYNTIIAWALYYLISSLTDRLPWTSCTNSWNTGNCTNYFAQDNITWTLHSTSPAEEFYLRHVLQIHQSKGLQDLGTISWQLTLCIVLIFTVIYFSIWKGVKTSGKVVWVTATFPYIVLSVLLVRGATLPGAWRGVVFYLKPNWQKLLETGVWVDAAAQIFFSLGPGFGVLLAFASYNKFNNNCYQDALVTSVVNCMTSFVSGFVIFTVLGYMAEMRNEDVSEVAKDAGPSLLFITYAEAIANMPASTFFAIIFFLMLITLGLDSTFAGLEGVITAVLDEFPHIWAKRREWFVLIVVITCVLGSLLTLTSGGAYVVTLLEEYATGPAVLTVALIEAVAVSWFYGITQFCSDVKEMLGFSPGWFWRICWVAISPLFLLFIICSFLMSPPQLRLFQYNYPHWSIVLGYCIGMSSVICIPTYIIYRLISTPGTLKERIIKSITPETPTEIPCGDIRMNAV
# Description: as §2, with “Consistent with data obtained with mice, the thermogenic effect of Compound 1-(4S) is dose dependently related to DAT occupancy and at least 50% DAT occupancy is needed for this effect.” left out
# [16] = biological target: T6, NET (Rattus norvegicus, UniProt Q63380); experiment: NET occupancy, rat; type: in vivo; conditions: thermogenesis study, all 3 doses (1.0, 3.0, 10 mg/kg)
# T6 construct: from tissue; host or cells: rat, in vivo dosing
# T6 sequence (Q63380 1-617): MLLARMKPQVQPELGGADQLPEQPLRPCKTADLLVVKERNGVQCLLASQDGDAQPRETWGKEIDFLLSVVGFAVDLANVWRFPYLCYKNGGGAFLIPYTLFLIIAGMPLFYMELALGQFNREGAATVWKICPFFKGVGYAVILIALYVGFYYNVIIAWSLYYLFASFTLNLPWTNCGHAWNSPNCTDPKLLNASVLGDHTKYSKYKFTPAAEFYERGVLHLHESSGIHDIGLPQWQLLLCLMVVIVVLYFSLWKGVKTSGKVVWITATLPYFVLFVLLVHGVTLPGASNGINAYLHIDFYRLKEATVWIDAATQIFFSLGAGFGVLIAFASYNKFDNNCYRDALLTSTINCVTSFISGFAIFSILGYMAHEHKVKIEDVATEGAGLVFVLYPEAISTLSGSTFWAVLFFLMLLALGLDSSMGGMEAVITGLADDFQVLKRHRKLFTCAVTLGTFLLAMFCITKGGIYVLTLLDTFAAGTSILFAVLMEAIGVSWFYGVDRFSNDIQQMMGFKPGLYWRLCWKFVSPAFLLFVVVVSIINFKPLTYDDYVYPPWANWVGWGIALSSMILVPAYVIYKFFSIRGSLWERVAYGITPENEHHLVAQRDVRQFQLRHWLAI
# Description: as §2, with “Consistent with data obtained with mice, the thermogenic effect of Compound 1-(4S) is dose dependently related to DAT occupancy and at least 50% DAT occupancy is needed for this effect.” left out
# [17] = mouse brain, 0.3 mg/kg, tail suspension study
# [18] = mouse brain, 1 mg/kg, tail suspension study
# [19] = single binding site model, read-out: total plasma concentration producing 50% effect (EC50), DAT occupancy
# [20] = mouse, thermogenesis study, across doses 1, 3, 10 mg/kg
# T1 sequence (Q61327 whole entry): as the sequence (P23977 whole entry) above, with S21P, A57V, A194S, H600R, L619V counted along it
smiles,measurement,setting,value
"CN1Cc2cc(-c3ccc(N)nn3)ccc2[C@H](c2ccc3ccccc3c2)C1 [Compound 1-(4S), 6-[(4S)-1,2,3,4-tetrahydro-2-methyl-4-(2-naphthalenyl)-7-isoquinolinyl]-3-pyridazinamine]",receptor occupancy at 0.3 mg/kg,[1]; [17],28 ± 3%
same,receptor occupancy at 1 mg/kg,[1]; [18],54 ± 3%
same,EC50,[1]; [19],1.19 µM
same,receptor occupancy at 1 mg/kg,"[1]; thermogenesis study, 1.0 mg/kg",55 ± 5.7%
same,receptor occupancy at 3 mg/kg,"[1]; thermogenesis study, 3.0 mg/kg",74 ± 6%
same,receptor occupancy at 10 mg/kg,"[1]; thermogenesis study, 10 mg/kg",83 ± 0.8%
same,EC50,[2]; [19],0.047 µM
same,receptor occupancy at 1 mg/kg,"[2]; thermogenesis study, 1.0 mg/kg",37 ± 8.3%
same,receptor occupancy at 3 mg/kg,"[2]; thermogenesis study, 3.0 mg/kg",55 ± 5.2%
same,receptor occupancy at 10 mg/kg,"[2]; thermogenesis study, 10 mg/kg",71 ± 1.7%
same,Solution pH,[3],~7.0 at about 1 μg/mL concentration in water
same,significant increase in rectal temperature,"[4]; rat, 1.0 mg/kg",not
same,change in rectal temperature,"[4]; rat, doses of 3.0 and 10 mg/kg",Significant increases
same,DAT occupancy needed for the thermogenic effect,"[4]; rats, consistent with mice",at least 50%
same,IC50,[5],0.0315 ± 0.0025 µM
same,receptor occupancy at 0.3 mg/kg,[6]; [17],86 ± 1%
same,receptor occupancy at 1 mg/kg,[6]; [18],89 ± 1%
same,SERT occupancy,[6]; [20],over 80%
same,IC50,[7],0.0185 ± 0.0055 µM
same,decrease in immobility relative to vehicle-treated controls,[8]; 0.3 mg/kg,77%
same,decrease in immobility,[8]; 1.0 mg/kg,91%
same,"lowest effective dose, tail suspension",[8],0.3 mg/kg
same,solubility,[9],≤ 1 µg/mL
same,change in rectal temperature,[10],significant increases
same,substitution for the cocaine stimulus,[11],partially substituted for the cocaine stimulus
same,cocaine-lever responding,"[11]; 0.1 mg/kg, 60 min",less than 1%
same,cocaine-lever responding,"[11]; 0.3 mg/kg, 15 min",11%
same,cocaine-lever responding,"[11]; 0.3 mg/kg, 60 min",53%
same,cocaine-lever responding,"[11]; 1 mg/kg, 15 min",10%
same,cocaine-lever responding,"[11]; 3 mg/kg, 15 min",28%
same,Stability,[12],Compound 1-(4S) is stable up to 25 °C with protection
same,Distribution coefficient Log Do/b,[13]; pH 6.5,3.10
same,Distribution coefficient Log Do/b,[13]; pH 7.4,3.82
same,receptor occupancy at 0.3 mg/kg,[14]; [17],76 ± 3%
same,receptor occupancy at 1 mg/kg,[14]; [18],82 ± 1%
same,NET occupancy,[14]; [20],over 80%
same,SERT occupancy,[15],nearly saturated
same,NET occupancy,[16],nearly saturated
